Structures are written as SMILES. ≈ marks a conversion by molar mass, not a printed value.

Among the test systems are Shigella dysenteriae; Staphylococcus aureus 10; Escherichia coli 37; Escherichia coli 117; Klebsiella pneumoniae; Pseudomonas aeruginosa; Staphylococcus aureus 37; Escherichia coli 5580; Acinetobacter baumannii; Escherichia coli 4530; Escherichia coli 170; Salmonella typhimurium; Staphylococcus aureus.
Common to all, as to assay: ≥ marks a high value that may be exact or a test limit, other limits are often not marked, values filed in µg/mL are converted to µM
Test [1] relates to Pseudomonas aeruginosa CMCCB 1010.
The test system of test [2] is Candida albicans ATCC 2002.
Test [3] deals with Candida parapsilosis ATCC 22019.
Test [4] concerns Enterobacter cloacae ATCC 13047.
In test [5] the test system is Candida albicans ATCC 90028.
The test system of test [6] is Pseudomonas aeruginosa ATCC 27853.
The subject of test [7] is Staphylococcus aureus ATCC 25923.
Test [8] relates to Klebsiella pneumoniae ATCC 700603.
Test [9] concerns Enterococcus faecalis ATCC 29212.
Test [10] relates to Escherichia coli ATCC 25922.
For test [11], the system named is Streptococcus pneumoniae ATCC 49619.
The subject of test [12] is Pseudomonas aeruginosa 4677.
Test [13] concerns Pseudomonas aeruginosa 3599.
For test [14], the system named is Enterobacter cloacae 2524.
Test [15] has as its system Klebsiella pneumoniae 913.
In test [16] the test system is Pseudomonas aeruginosa 5106.
Test [17] has as its system Klebsiella pneumoniae ST258.
Test [18] deals with Micrococcus luteus ATCC 9341.
Test [19] concerns Escherichia coli ATCC 2592.
Test [20] concerns Pseudomonas aeruginosa ATCC 9027.
The test system of test [21] is Staphylococcus aureus ATCC 6538.
Test [22] concerns Candida albicans ATCC 36232.
The subject of test [23] is Proteus vulgaris ATCC 6380.
The test system of test [24] is Escherichia coli IFO 12734.
The test system of test [25] is Bacillus subtilis IFO 3134.
The test system of test [26] is Staphylococcus aureus IFO 12732.
For test [27], the system named is Pseudomonas aeruginosa IFO 12582.
Test [28] deals with Staphylococcus aureus A170.
Test [29] relates to Staphylococcus epidermidis.

For `CC[C@H](C)[C@H](NC(=O)[C@@H](NC(=O)[C@@H]1CCCN1C(=O)[C@H](CC(C)C)NC(=O)[C@@H](N)Cc1ccccc1)[C@@H](C)CC)C(=O)NCC(=O)N[C@@H](CCCCN)C(=O)N[C@@H](CC(C)C)C(=O)N[C@@H](CC(C)C)C(=O)N[C@@H](CO)C(=O)NCC(=O)O` [FLPIIGKLLSG], the minimum inhibitory concentration (MIC) (commonly the lowest concentration found to suppress growth) is 17.3 µM (≈ 20 µg/mL) in test [1]; 8.64 µM (≈ 10 µg/mL) in test [2]; 4.32 µM (≈ 5 µg/mL) in test [3]; 4.32 µM (≈ 5 µg/mL) against Shigella dysenteriae; 8.64 µM (≈ 10 µg/mL) against Staphylococcus aureus 10; 2.16 µM (≈ 2.5 µg/mL) in test [4]. Further, the MIC in test [5] is 17.3 µM (≈ 20 µg/mL); in test [6] it was 34.6 µM (≈ 40 µg/mL); in test [7], 2.16 µM (≈ 2.5 µg/mL); against Escherichia coli 37 it was 17.3 µM (≈ 20 µg/mL); against Escherichia coli 117, 4.32 µM (≈ 5 µg/mL); in the test on Klebsiella pneumoniae, 69.1 µM (≈ 80 µg/mL). Further, the MIC in test [8] was found to be 8.64 µM (≈ 10 µg/mL); in [9], 17.3 µM (≈ 20 µg/mL); against Pseudomonas aeruginosa, 8.64 µM (≈ 10 µg/mL); with Staphylococcus aureus 37, 4.32 µM (≈ 5 µg/mL); in test [10], 4.32 µM (≈ 5 µg/mL).
With `CC[C@H](C)[C@H](NC(=O)CN)C(=O)N[C@@H](CC(C)C)C(=O)N[C@@H](CCCCN)C(=O)N[C@H](C(=O)N[C@H](C(=O)N[C@@H](CCCCN)C(=O)N[C@@H](CO)C(=O)N[C@H](C(=O)N[C@@H](C)C(=O)N[C@@H](CO)C(=O)N[C@@H](CCCCN)C(=O)N[C@H](C(=O)N[C@@H](C)C(=O)N[C@@H](CC(N)=O)C(=O)N[C@H](C(=O)N[C@H](C(=O)N[C@@H](CCC(N)=O)C(=O)N[C@@H](CCCCN)C(=O)N[C@@H](CC(C)C)C(=O)N[C@@H](CCCCN)C(=O)N[C@@H](CCCN=C(N)N)C(=O)N[C@@H](CCCCN)C(=O)N[C@@H](C)C(=O)N[C@@H](CCCCN)C(=O)N[C@@H](CC(N)=O)C(=O)N[C@@H](C)C(=O)N[C@H](C(=O)O)C(C)C)C(C)C)[C@@H](C)O)C(C)C)[C@@H](C)CC)[C@@H](C)CC)[C@@H](C)O` [GILKTIKSIASKVANTVQKLKRKAKNAV], the minimum inhibitory concentration (MIC) in test [11] was at least 50 µM; in the test with Escherichia coli 5580, 1.6 µM (≈ 4.81 µg/mL); against Acinetobacter baumannii, 3.1 µM (≈ 9.33 µg/mL); in [12], 6.2 µM (≈ 18.7 µg/mL); in [13] it was at least 50 µM; in [6], 8.31 µM (≈ 25 µg/mL). In addition, the MIC in test [7] is over 16.6 µM; in test [14] it was 3.1 µM (≈ 9.33 µg/mL); against Escherichia coli 4530, 3.1 µM (≈ 9.33 µg/mL); in test [15], 3.1 µM (≈ 9.33 µg/mL); in [16], 12 µM (≈ 36.1 µg/mL); in test [17], 16.6 µM (≈ 50 µg/mL). Besides, the MIC in the test on Escherichia coli 170 is 0.8 µM (≈ 2.41 µg/mL); in [10], 1.6 µM (≈ 4.81 µg/mL); with Salmonella typhimurium it was 2.23 µM (≈ 6.7 µg/mL).
`CC[C@H](C)[C@H](NC(=O)[C@H](CCCCN)NC(=O)[C@@H]1CCCN1C(=O)[C@H](CC(C)C)NC(=O)[C@H](Cc1ccccc1)NC(=O)[C@H](CC(N)=O)NC(=O)[C@H](C)NC(=O)[C@H](C)NC(=O)[C@H](CC(C)C)NC(=O)CN)C(=O)N[C@@H](Cc1ccccc1)C(=O)N[C@@H](CS)C(=O)N[C@@H](CCCCN)C(=O)N[C@H](C(=O)N[C@H](C(=O)N[C@@H](CCCN=C(N)N)C(=O)N[C@@H](CCCCN)C(=O)N[C@@H](CS)C(N)=O)[C@@H](C)O)[C@@H](C)CC` [GLAANFLPKIFCKITRKC]: the MIC with Staphylococcus aureus was found to be 49.4 µM (≈ 100 µg/mL); in [18], 6.18 µM (≈ 12.5 µg/mL); in [19] it was 12.4 µM (≈ 25 µg/mL); in test [20], 6.18 µM (≈ 12.5 µg/mL); in test [21], 12.4 µM (≈ 25 µg/mL); in [22], 12.4 µM (≈ 25 µg/mL). In test [23], the MIC is at least 49.4 µM.
Take `CC[C@H](C)[C@H](NC(=O)[C@H](C)NC(=O)[C@@H]1CCCN1C(=O)[C@@H](NC(=O)[C@@H](NC(=O)[C@H](Cc1cnc[nH]1)NC(=O)[C@H](C)NC(=O)[C@H](C)NC(=O)[C@@H](NC(=O)[C@H](CCCCN)NC(=O)[C@H](C)NC(=O)[C@H](CC(C)C)NC(=O)[C@@H](NC(=O)CNC(=O)[C@H](Cc1ccccc1)NC(=O)[C@@H](N)CC(C)C)C(C)C)C(C)C)C(C)C)C(C)C)C(=O)N[C@@H](C)C(=O)N[C@@H](CCC(=O)O)C(=O)N[C@@H](Cc1cnc[nH]1)C(=O)N[C@@H](Cc1ccccc1)C(N)=O` [LFGVLAKVAAHVVPAIAEHF]: the minimal inhibitory concentration (MIC) in test [24], in test [25], in test [26] and in test [27] was at least 64 µM each time.
Take `CC[C@H](C)[C@H](NC(=O)[C@H](C)NC(=O)[C@H](CC(C)C)NC(=O)[C@@H](N)CC(C)C)C(=O)N[C@H](C(=O)NCC(=O)N[C@@H](CC(N)=O)C(=O)N[C@@H](CC(C)C)C(=O)N[C@@H](CC(C)C)C(=O)N[C@@H](CCCCN)C(=O)N[C@@H](CO)C(=O)N[C@@H](CC(C)C)C(=O)N[C@@H](CC(C)C)C(=O)O)C(C)C` [LLAIVGNLLKSLL]: the MIC in test [28] and in test [29] was 7.32 µM (≈ 10 µg/mL) in each case.
